Patent publication US20180136227A1, “Treatment and Diagnosis of Hereditary Xerocytosis” (Universite d'aix Marseille, priority 2015, published 2018)

Columns and labels:
[1] = system: control red blood cells with WT Gardos channels; assay: Vanadate-induced K+ loss and water loss in control red blood cells; format: cell-based, human
Method: Red blood cell cation content and volume measurements: Freshly drawn blood was washed 4 times at room temperature in medium containing in mM: NaCl 147, KCl 5, MgSO4 2, CaCl2 1, Hepes 10, buffered with NaOH pH 7.4 (320 mOsm). […] A few minutes before sampling time, 400 μl of cell suspension was taken to fill 3 nylon tubes that were centrifuged for 10 minutes at 4° C., 20,000. g at the exact sampling time. The supernatant was collected for extracellular ion content measurements. The pellet of red cells was extracted and immediately weighted. Then, dry weight was measured after overnight heating (80° C.). Water content was calculated with a correction of 3.64% corresponding to trapped medium between packed cells. Intracellular ions were extracted from dried pellets by overnight incubation at 4° C. in 5 ml milliRho water (Millipore). Na^+ and K^+ were measured by flame spectroscopy with a PFP7 Jenway. Statistics: Mann and Whitney test was used to compare control versus patient or control versus inhibitor in red blood cell experiments.

control red blood cells = assay: Osmotic fragility test in hypotonic saline, control red blood cells; conditions: for hemolysis induced before the osmotic test: blood incubation 25 hours, control red blood cells
[2] = Sickle Cell disease, Ataga et al., 2011; cited from earlier work

SMILES	inhibition at 0.4 µM ([1]; Homo sapiens, Erythrocyte, 1 h) [%]	inhibition at 4 µM ([1]; Homo sapiens, Erythrocyte, 1 h) [%]	hemolysis induced before the osmotic test (control red blood cells; Senicapoc 4 or 0.4 μM)	effect on osmotic resistance (control red blood cells; Senicapoc 4 or 0.4 μM, blood stored 25 hours at 4° C., control)	toxicity in phase III study [2]	inhibition at 10 µM ([1]; Homo sapiens, Erythrocyte, 1 h, read-out: inhibition of K+ loss) [%]	effect on K+ loss and cell water loss ([1]; TRAM-34 10 μM, 5 mM vanadate, red blood cells with WT Gardos channels)	hemolysis induced before the osmotic test (control red blood cells; TRAM-34 10 μM)
NC(=O)C(c1ccccc1)(c1ccc(F)cc1)c1ccc(F)cc1 [Senicapoc, bis(4-fluorophenyl)phenyl acetamide]	84 ± 4	95 ± 4	not observed	no effect	non-toxic			
Clc1ccccc1C(c1ccccc1)(c1ccccc1)n1cccn1 [TRAM-34, 1-[(2-Chlorophenyl)diphenylmethyl]-1H-pyrazole]						97 ± 1	able to reduce	strong hemolysis
